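Step 1: Grow cells in 96-well plates. Step 2: Expose to compound for 48 hours at 5 concentrations. Step 3: Interpolate endpoints linearly; if unreached, use highest concentration. GI50 is the concentration that inhibits growth by half.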 Active and inactive are the calls of the source. No stated cut-off is given here; in the data, active = GI50 up to about 1.1 µM and inactive = higher.

Ten compounds from ChEMBL document CHEMBL1201862, “PubChem BioAssay data set” (2004) can be followed below.

Among the test systems are 786-0; ACHN; CCRF-CEM; COLO 205; HL-60; HOP-92; Hs-578T; KM12; MOLT-4; Malme-3M; NCI-H522; OVCAR-3; RPMI-8226; RXF 393; SF-268; SNB-75; SW-620; U-251; UACC-62.
What all share (assay): DTP human tumour cell line panel, 48 h

Consider `O=c1[nH]nc(Cc2ccccc2)[nH]1`, for which the GI50 in the experiment with 786-0, with ACHN, with CCRF-CEM, with COLO 205, with HL-60 and in the experiment with HOP-92 was > 100 µM (inactive) each time. Further, the GI50 with Hs-578T, in the experiment with KM12, with MOLT-4, with Malme-3M, in the experiment with NCI-H522 and in the experiment with OVCAR-3 was > 100 µM (inactive) each time. Besides, the GI50 with RPMI-8226, in the experiment on RXF 393, with SF-268, with SNB-75, in the experiment on SW-620 and in the experiment with U-251 was > 100 µM (inactive) in each case. Further, in the experiment with UACC-62, the GI50 (as a rule, the concentration that inhibits growth by half) was > 100 µM (inactive).

Turning to `NCCCN1CCN(CC(=O)O)CCN(CCCN)CCN(CC(=O)O)CC1`, the GI50 in the experiment with 786-0 is 6.93 µM (inactive); in the experiment on ACHN, > 100 µM (inactive); in the experiment on CCRF-CEM it was > 91.6 µM (inactive); in the experiment on COLO 205 it was 33.7 µM (inactive); in the experiment on HL-60 it was 15.3 µM (inactive); with HOP-92, > 100 µM (inactive). The GI50 in the experiment with Hs-578T was > 100 µM (inactive); in the experiment on KM12 it was 28.3 µM (inactive); in the experiment on MOLT-4, 7.14 µM (inactive); in the experiment with Malme-3M, 25.5 µM (inactive); in the experiment with NCI-H522, 24.7 µM (inactive); in the experiment on OVCAR-3, > 31.8 µM (inactive). In addition, the GI50 was 17.4 µM (inactive) in the experiment with RPMI-8226; > 47.9 µM (inactive) in the experiment with RXF 393; > 100 µM (inactive) with SF-268; > 100 µM (inactive) with SNB-75; 9.91 µM (inactive) in the experiment with SW-620; > 100 µM (inactive) in the experiment with U-251. Also, the GI50 in the experiment with UACC-62 is > 56.9 µM (inactive).

Take `Cc1ccc(S(=O)(=O)N2CCN(S(=O)(=O)c3ccc(C)cc3)CCN(S(=O)(=O)c3ccc(C)cc3)Cc3cc(C#N)c(C#N)cc3CN(S(=O)(=O)c3ccc(C)cc3)CC2)cc1`: the GI50 was > 100 µM (inactive) with 786-0; > 100 µM (inactive) in the experiment on ACHN; > 100 µM (inactive) with CCRF-CEM; > 100 µM (inactive) in the experiment on COLO 205; > 100 µM (inactive) with HL-60; 25.3 µM (inactive) in the experiment with HOP-92. Moreover, the GI50 in the experiment on Hs-578T is > 100 µM (inactive); in the experiment with KM12, > 100 µM (inactive); in the experiment with MOLT-4, > 100 µM (inactive); in the experiment on Malme-3M, 52.4 µM (inactive); in the experiment on NCI-H522, > 100 µM (inactive); with OVCAR-3 it was > 100 µM (inactive). For the same compound, the GI50 was > 100 µM (inactive) in the experiment on RPMI-8226; > 100 µM (inactive) in the experiment with RXF 393; > 100 µM (inactive) in the experiment with SF-268; 19.1 µM (inactive) in the experiment on SNB-75; > 100 µM (inactive) in the experiment with SW-620; > 100 µM (inactive) in the experiment with U-251. For the same compound, the GI50 in the experiment with UACC-62 is > 100 µM (inactive).

With `Cc1c(-c2nc3ccccc3[nH]2)c(=O)n(-c2ccccc2)n1C`, the GI50 in the experiment on 786-0, with ACHN, with CCRF-CEM, in the experiment with COLO 205, with HL-60 and in the experiment on HOP-92 was > 100 µM (inactive) each time. Further, the GI50 in the experiment with Hs-578T, in the experiment on KM12, with MOLT-4, with Malme-3M, in the experiment on NCI-H522 and in the experiment on OVCAR-3 was > 100 µM (inactive) in each case. The GI50 in the experiment on RPMI-8226, with RXF 393, in the experiment on SF-268, with SNB-75, with SW-620 and with U-251 was > 100 µM (inactive) throughout. Also, the GI50 with UACC-62 was > 100 µM (inactive).

With `CCOC(=O)CCC(C(=O)OCC)n1nnc2ccc(Nc3c(C)[n+]([O-])c4ccc(Cl)cc4[n+]3[O-])cc21` (stereo not given), the GI50 with 786-0 is 44 µM (inactive); with ACHN it was 28.6 µM (inactive); in the experiment with CCRF-CEM it was 35 µM (inactive); in the experiment on COLO 205, 37.4 µM (inactive); with HL-60, 39.2 µM (inactive); with HOP-92, 23.8 µM (inactive). Moreover, the GI50 in the experiment with Hs-578T is > 100 µM (inactive); with KM12, 91.2 µM (inactive); in the experiment on MOLT-4, 34.5 µM (inactive); with Malme-3M, > 100 µM (inactive); with NCI-H522, 43.4 µM (inactive); in the experiment on OVCAR-3, 32.1 µM (inactive). The GI50 in the experiment on RPMI-8226 is 28.6 µM (inactive); in the experiment on RXF 393, 26.9 µM (inactive); with SF-268, 23.5 µM (inactive); with SNB-75 it was 31.4 µM (inactive); with SW-620, 54 µM (inactive); in the experiment on U-251, 46.3 µM (inactive). The GI50 in the experiment on UACC-62 was 30.4 µM (inactive).

`CC(C)C1OCC(CO)CO1` (stereo not given): the GI50 in the experiment on 786-0, in the experiment with ACHN, in the experiment on CCRF-CEM, in the experiment on COLO 205, in the experiment with HL-60 and in the experiment with HOP-92 was > 100 µM (inactive) throughout. Moreover, the GI50 with Hs-578T, in the experiment with KM12, in the experiment with MOLT-4, in the experiment on Malme-3M, in the experiment on NCI-H522 and with OVCAR-3 was > 100 µM (inactive) each time. Also, the GI50 with RPMI-8226, in the experiment with RXF 393, with SF-268, in the experiment with SNB-75, with SW-620 and in the experiment on U-251 was > 100 µM (inactive) each time. In the experiment with UACC-62, the GI50 is > 100 µM (inactive).

`Cc1cn(CCC(N)C(=O)O)c(=O)[nH]c1=O` (stereo not given): the GI50 in the experiment with 786-0, in the experiment on ACHN, in the experiment on CCRF-CEM, with COLO 205, in the experiment with HL-60 and with HOP-92 was > 100 µM (inactive) in each case. Besides, the GI50 in the experiment on Hs-578T, in the experiment with KM12, in the experiment on MOLT-4, in the experiment with Malme-3M, in the experiment with NCI-H522 and in the experiment on OVCAR-3 was > 100 µM (inactive) in each case. Moreover, the GI50 in the experiment with RPMI-8226, with RXF 393, with SF-268, in the experiment on SNB-75, in the experiment with SW-620 and in the experiment on U-251 was > 100 µM (inactive) throughout. Also, in the experiment with UACC-62, the GI50 was > 100 µM (inactive).

Take `CC(C)=CCC[C@@H](C)C1=C(N)C(=O)C(C)=C(O)C1=O`: the GI50 in the experiment on 786-0 is 43.7 µM (inactive); in the experiment on ACHN, 18.8 µM (inactive); in the experiment on CCRF-CEM it was 18.7 µM (inactive); with COLO 205 it was 29.2 µM (inactive); with HL-60, 13 µM (inactive); in the experiment on HOP-92, 57.4 µM (inactive). Also, the GI50 in the experiment with Hs-578T was 34.9 µM (inactive); in the experiment on KM12 it was 32.7 µM (inactive); with MOLT-4, 19.5 µM (inactive); in the experiment on Malme-3M, 56.9 µM (inactive); in the experiment with NCI-H522, 25.8 µM (inactive); with OVCAR-3, 33 µM (inactive). The GI50 in the experiment with RPMI-8226 is 39.8 µM (inactive); with RXF 393, > 75 µM (inactive); in the experiment on SF-268, 27.4 µM (inactive); with SNB-75, 40.6 µM (inactive); with SW-620 it was 41.3 µM (inactive); in the experiment with U-251, 31.8 µM (inactive). The GI50 in the experiment with UACC-62 is 31.1 µM (inactive).

In the case of `CN(C)Cc1cc(/N=N/c2ccccc2)ccc1O`, the GI50 was 65.5 µM (inactive) in the experiment on 786-0; 29 µM (inactive) with ACHN; 42.3 µM (inactive) with CCRF-CEM; 53 µM (inactive) in the experiment with COLO 205; 41.5 µM (inactive) in the experiment on HL-60; 23.2 µM (inactive) in the experiment on HOP-92. The GI50 in the experiment with Hs-578T was 33 µM (inactive); with KM12 it was 34.6 µM (inactive); with MOLT-4 it was 33.9 µM (inactive); in the experiment with Malme-3M it was 47.3 µM (inactive); in the experiment on NCI-H522, 29.6 µM (inactive); in the experiment on OVCAR-3 it was 68.2 µM (inactive). Besides, the GI50 was 56 µM (inactive) in the experiment on RPMI-8226; 3.94 µM (inactive) in the experiment on RXF 393; 38.8 µM (inactive) with SF-268; 10 µM (inactive) with SNB-75; 57.7 µM (inactive) in the experiment on SW-620; > 100 µM (inactive) in the experiment on U-251. The GI50 in the experiment on UACC-62 is 24.5 µM (inactive).

With `C[n+]1c(/C=C/c2ccc(O)c3ncccc23)[se]c2ccccc21`, the GI50 in the experiment with 786-0 is 2.99 µM (inactive); in the experiment with ACHN it was 1.92 µM (inactive); with CCRF-CEM it was 0.92 µM (active); with COLO 205, 5.58 µM (inactive); in the experiment with HL-60, 2.55 µM (inactive); with HOP-92, 4.22 µM (inactive). For the same compound, the GI50 was 15.7 µM (inactive) in the experiment on Hs-578T; 2.48 µM (inactive) in the experiment on KM12; 1.94 µM (inactive) with MOLT-4; 4.01 µM (inactive) in the experiment with Malme-3M; 2.58 µM (inactive) in the experiment with NCI-H522; 1.57 µM (inactive) with OVCAR-3. Moreover, the GI50 in the experiment with RPMI-8226 was 5.01 µM (inactive); in the experiment on RXF 393, 8.67 µM (inactive); with SF-268 it was 4.91 µM (inactive); in the experiment on SNB-75 it was 12.1 µM (inactive); in the experiment on SW-620, 3.98 µM (inactive); in the experiment on U-251 it was 2.88 µM (inactive). In the experiment on UACC-62, the GI50 is 3.14 µM (inactive).
